According to patent US20250326738A1, “MALT1 Modulators and Uses Thereof” (Rarefied Biosciences, Inc., priority 2022, published 2025):

Assays:
full length MALT1 = molecular target: T1, full length MALT1 (Homo sapiens, UniProt Q9UDY8); assay: MALT1 biochemical assay (fluorogenic peptide substrate cleavage); settings: full length MALT1, 15 nM enzyme, 30 μM peptide substrate, 30 min pre-incubation, 60 min reaction; mean if tested more than once
T1 construct: measuring enzymatic activity of full length MALT1 at varying concentrations of compound
T1 sequence (Q9UDY8 1-824): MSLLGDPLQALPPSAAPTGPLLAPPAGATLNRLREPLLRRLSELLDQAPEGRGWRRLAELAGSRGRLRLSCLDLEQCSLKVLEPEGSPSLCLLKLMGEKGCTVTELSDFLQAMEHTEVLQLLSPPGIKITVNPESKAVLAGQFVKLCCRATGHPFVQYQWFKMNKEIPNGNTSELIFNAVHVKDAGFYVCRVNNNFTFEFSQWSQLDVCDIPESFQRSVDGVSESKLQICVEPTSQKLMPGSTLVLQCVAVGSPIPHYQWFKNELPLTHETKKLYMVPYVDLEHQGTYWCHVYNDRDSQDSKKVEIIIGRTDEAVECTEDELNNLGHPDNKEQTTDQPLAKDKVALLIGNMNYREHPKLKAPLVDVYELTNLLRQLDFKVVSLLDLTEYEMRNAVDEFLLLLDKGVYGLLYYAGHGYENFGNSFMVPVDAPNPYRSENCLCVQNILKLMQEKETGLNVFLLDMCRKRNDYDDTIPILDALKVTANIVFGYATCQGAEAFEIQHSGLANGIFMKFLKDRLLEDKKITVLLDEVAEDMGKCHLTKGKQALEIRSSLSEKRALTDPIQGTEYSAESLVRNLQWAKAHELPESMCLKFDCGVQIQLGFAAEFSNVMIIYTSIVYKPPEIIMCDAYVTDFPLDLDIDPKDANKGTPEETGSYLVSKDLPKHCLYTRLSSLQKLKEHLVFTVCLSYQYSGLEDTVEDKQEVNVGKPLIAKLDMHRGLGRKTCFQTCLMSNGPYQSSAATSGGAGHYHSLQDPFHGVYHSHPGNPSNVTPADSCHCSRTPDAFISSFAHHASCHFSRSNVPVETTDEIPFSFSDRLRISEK
Method: Inhibitor potency was evaluated by measuring enzymatic activity of full length MALT1 at varying concentrations of compound. The enzymatic assay consists of a single substrate reaction that monitors the release of a fluorescent dye upon cleavage of the peptide substrate. […] The assay buffer consists of 50 mM Hepes, pH 7.5, 0.8 M sodium citrate, 1 mM DTT, 0.004% tween-20, and 0.005% bovine serum albumin (BSA). […] The reaction was quenched after 60 minutes with the addition of iodoacetate at a final concentration of 10 mM. Total fluorescence was measured using an Envision (PerkinElmer) with fluorescence excitation at 485 nm and emission at 520 nm.
The reaction was initiated with the addition of 10 μL of peptide substrate. […] IC50 values were calculated by fitting the concentration-response curves to a four-parameter logistic equation in GraphPad Prism.
“N/A” indicates not tested.

Jurkat IL-2 = Jurkat IL-2 assay (IL-2 inhibition by ELISA after anti-CD3/28/2 stimulation); assay type: cell-based; settings: Jurkat clone E6.1, IL-2 in supernatant, 30 min pre-incubation, anti-CD3/28/2 stimulation 24 hours, mean if tested more than once
Method: Inhibition was determined in a cell-based assay using Jurkat (ATCC, clone E6.1), an immortalized T-cell line, exposed to a dose response of compound and assessed for viability, and IL-2 inhibition by ELISA. Cells were cultured in RPMI/10% FBS (Invitrogen 11875093, Atlanta Biologicals S12450H), maintained below 3E6/mL and only used in assays while below passage 25. Compounds were stamped by ECHO onto 384w plates (PerkinElmer Culturplate, 6007680). The cells were plated in fresh media on top of compound and incubated for 30 minutes before stimulation with soluble anti-CD3/28/2 (Stemcell, 10970) for 24 hours. Supernatant was collected and assessed for IL-2 (MSD, 384w, L21SA-1). To assess viability of cells treated with compound, cells were lysed with CTG reagent (Promega, G7570), and measured by luminometer. […] IC50s calculated using 4-parameter fit in GraphPad Prism.
“N/A” indicates not tested. For a compound that was tested in more than one experiment, the result shown represents the mean value.

Row | Compound | IC50 (full length MALT1) [µM] | IC50 (Jurkat IL-2; Homo sapiens) [µM] | IC50 (Jurkat IL-2) [µM]
1 | CC(=O)N1CC(C(=O)N(C)[C@@H](c2ccc(Nc3cnn(-c4cccc(C#N)c4)c3C3CC3)cc2)C(F)(F)F)C1 [Compound 1.39] | 0.1 to 1 | 0.1 to 1 | –
2 | CC(=O)N1CC(C(=O)N(C)[C@@H](c2ccc(Nc3cnn(-c4ccccn4)c3C3CC3)cc2)C(F)(F)F)C1 [Compound 1.40] | < 0.1 | 0.1 to 1 | –
3 | CN(C(=O)[C@H]1CC[C@H](C(=O)O)CC1)[C@@H](c1ccc(Nc2cnn(-c3ccccc3)c2C(F)(F)F)cc1)C(F)(F)F [Compound 2.1, (1S,4r)-4-(methyl((S)-2,2,2-trifluoro-1-(4-((1-phenyl-5-(trifluoromethyl)-1H-pyrazol-4-yl)amino)phenyl)ethyl)carbamoyl)cyclohexane-1-carboxylic acid] | < 0.1 | < 0.1 | –
4 | CN(C(=O)[C@H]1CC[C@H](C(=O)O)CC1)[C@@H](c1ccc(Nc2cnn(-c3ccncc3)c2C(F)(F)F)cc1)C(F)(F)F [Compound 2.2] | 0.1 to 1 | 0.1 to 1 | –
5 | CN(C(=O)[C@H]1CC[C@H](C(=O)O)CC1)[C@@H](c1ccc(Nc2cnn(-c3cccnc3)c2C(F)(F)F)cc1)C(F)(F)F [Compound 2.3] | 0.1 to 1 | < 0.1 | –
6 | CN(C(=O)[C@H]1CC[C@H](C(=O)O)CC1)[C@@H](c1ccc(Nc2cnn(-c3ccccn3)c2C(F)(F)F)cc1)C(F)(F)F [Compound 2.4] | < 0.1 | < 0.1 | –
7 | CO[C@@H](C)c1c(Nc2ccc([C@H](N(C)C(=O)[C@H]3CC[C@H](C(=O)O)CC3)C(F)(F)F)cc2)cnn1-c1ccccn1 [Compound 2.5] | < 0.1 | 0.1 to 1 | –
8 | CO[C@@H](C)c1c(Nc2ccc([C@H](N(C)C(=O)[C@H]3CC[C@H](C(=O)O)CC3)C(F)(F)F)cc2)cnn1-c1ccccc1 [Compound 2.6] | 0.1 to 1 | 0.1 to 1 | –
9 | CO[C@@H](C)c1c(Nc2ccc([C@H](N(C)C(=O)[C@H]3CC[C@H](C(=O)O)CC3)C(F)(F)F)cc2)cnn1-c1ccncc1 [Compound 2.7] | 0.1 to 1 | > 1 | –
10 | CO[C@@H](C)c1c(Nc2ccc([C@H](N(C)C(=O)[C@H]3CC[C@H](C(=O)O)CC3)C(F)(F)F)cc2)cnn1-c1cccnc1 [Compound 2.8] | 0.1 to 1 | 0.1 to 1 | –
11 | CN(C(=O)[C@H]1CC[C@H](C(=O)O)CC1)[C@@H](c1ccc(Nc2cnn(-c3cccnn3)c2C(F)(F)F)cc1)C(F)(F)F [Compound 2.9] | < 0.1 | < 0.1 | –
12 | CO[C@@H](C)c1c(Nc2ccc([C@H](N(C)C(=O)[C@H]3CC[C@H](C(=O)O)CC3)C(F)(F)F)cc2)cnn1-c1cccc(C#N)c1 [Compound 2.10] | < 0.1 | 0.1 to 1 | –
13 | CN(C(=O)[C@H]1C[C@H](C(=O)O)C1)[C@@H](c1ccc(Nc2cnn(-c3ccccn3)c2C(F)(F)F)cc1)C(F)(F)F [Compound 2.11, (1r,3r)-3-{methyl[(1S)-2,2,2-trifluoro-1-(4-{[1-(pyridin-2-yl)-5-(trifluoromethyl)-1H-pyrazol-4-yl]amino}phenyl)ethyl]carbamoyl}cyclobutane-1-carboxylic Acid Amine] | < 0.1 | < 0.1 | –
14 | CN(C(=O)[C@H]1C[C@@H](C(=O)O)C1)[C@@H](c1ccc(Nc2cnn(-c3ccccn3)c2C(F)(F)F)cc1)C(F)(F)F [Compound 2.12, (1s,3s)-3-{methyl[(1S)-2,2,2-trifluoro-1-(4-{[1-(pyridin-2-yl)-5-(trifluoromethyl)-1H-pyrazol-4-yl]amino}phenyl)ethyl]carbamoyl}cyclobutane-1-carboxylic Acid Amine] | < 0.1 | 0.1 to 1 | –
15 | CN(C(=O)[C@H]1C[C@H](C(=O)O)C1)[C@@H](c1ccc(Nc2cnn(-c3ccccc3)c2C(F)(F)F)cc1)C(F)(F)F [Compound 2.13] | < 0.1 | < 0.1 | –
16 | CN(C(=O)[C@H]1C[C@@H](C(=O)O)C1)[C@@H](c1ccc(Nc2cnn(-c3ccccc3)c2C(F)(F)F)cc1)C(F)(F)F [Compound 2.14] | < 0.1 | 0.1 to 1 | –
17 | (1r,4S)—N—((S)-1-(4-((4-cyclopropyl-1,5-naphthyridin-3-yl)amino)phenyl)-2,2,2-trifluoroethyl)-N-methyl-4-(1H-tetrazol-5-yl)cyclohexane-1-carboxamide [Compound 3.1] | > 1 | – | 0.1 to 1
